Data on 2 molecules can be found in PMC10448176, “Arsenite oxidase in complex with antimonite and arsenite oxyanions: Insights into the catalytic mechanism” (The Journal of Biological Chemistry, 2023).

Read-outs that look alike come from different tables or passages of the source.

This test deals with Af Aio (arsenite oxidase, AioA/AioB) (Alcaligenes faecalis, UniProt Q7SIF4). The settings on record: Mo active site of AioA, covalent.

On to `O[As](O)O` [As, arsenite], for which the “X-ray crystallography, crystal soak” value (10 mM sodium arsenite soak of ferricyanide-oxidized crystals, mu-oxo bridged to Mo, two structures: As_d (8CH9, two oxo bridges) and As_c (8CFF, one bridge, possible)) is given as “the As ion is bound to Mo via one μ-oxo bridge (Mo-Ox-As)”.
For the molecule `[OH][Sb]([OH])[OH]` [Sb, antimonite], the “X-ray crystallography, crystal soak” value (10 mM potassium antimonyl tartrate soak of ferricyanide-oxidized crystals, one oxo bridge to Mo, Sb with four further oxo/hydroxo groups, turnover intermediate) was “the Sb atom is sitting vertically to Mo and coordinated to the oxo ligand”.
